Results on 35 compounds are retold here after patent US20230250106A1, “COMPOUNDS AND COMPOSITIONS FOR TREATING CONDITIONS ASSOCIATED WITH STING ACTIVITY” (IFM Due, Inc., priority 2020, published 2023).

As a reminder, the EC50 is the concentration needed to bring the measured effect to its halfway point.

In the experiment the test system is STING pathway. In words: STING reporter assay: luciferase reporter activity in THP1-Dual KO-IFNAR2 cells activated with 2'3'cGAMP. As to conditions: Homo sapiens, 2'3'cGAMP 15 μM, 24 h, read-out: hSTING EC50. The class given is cell-based. As to the method: STING pathway activation by the compounds described herein was measured using THP1-Dual™ cells (KO-IFNAR2).
THP1-Dual™ KO-IFNAR2 Cells (obtained from invivogen) were maintained in RPMI, 10% FCS, 5 ml P/S, 2 mM L-glut, 10 mM Hepes, and 1 mM sodium pyruvate. Compounds were spotted in empty 384 well tissue culture plates (Greiner 781182) by Echo for a final concentration of 0.0017-100 μM. Cells were plated into the TC plates at 40 μL per well, 2×10E6 cells/mL. For activation with STING ligand, 2′3′cGAMP (MW 718.38, obtained from Invivogen), was prepared in Optimem media.
The following solutions were prepared for each 1×384 plate: • Solution A: 2 mL Optimem with one of the following stimuli: • 60 μL of 10 mM 2′3′cGAMP→150 μM stock • Solution B: 2 mL Optimem with 60 μL Lipofectamine 2000→Incubate 5 min at RT
2 mL of solution A and 2 ml Solution B was mixed and incubated for 20 min at room temperature (RT). 20 μL of transfection solution (A+B) was added on top of the plated cells, with a final 2′3′cGAMP concentration of 15 μM. The plates were then centrifuged immediately at 340 g for 1 minute, after which they were incubated at 37° C., 5% CO2,>98% humidity for 24 h. Luciferase reporter activity was then measured. EC50 values were calculated by using standard methods known in the art.
Luciferase reporter assay: 10 μL of supernatant from the assay was transferred to white 384-plate with flat bottom and squared wells. One pouch of QUANTI-Luc™ Plus was dissolved in 25 mL of water. 100 μL of QLC Stabilizer per 25 mL of QUANTI-Luc™ Plus solution was added. 50 μL of QUANTI-Luc™ Plus/QLC solution per well was then added. Luminescence was measured on a Platereader (e.g., Spectramax I3X (Molecular Devices GF3637001)).
Luciferase reporter activity was then measured. EC50 values were calculated by using standard methods known in the art.
Consider `C[C@@H](c1ccc(C(=O)Nc2c[nH]c3cc(F)c(F)cc23)cc1F)N1CC(F)(F)C1` (single isomer, unassigned) [Compound 244, (R or S)—N-(5,6-difluoro-1H-indol-3-yl)-4-(1-(3,3-difluoroazetidin-1-yl)-1l3-ethyl)-3-fluorobenzamide], for which the EC50 lay within 0.2 to 1 µM.

On to `C[C@H](c1ccc(C(=O)Nc2c[nH]c3cc(F)c(F)cc23)cc1F)N1CC(F)(F)C1` (single isomer, unassigned) [Compound 245, (R or S)—N-(5,6-difluoro-1H-indol-3-yl)-4-(1-(3,3-difluoroazetidin-1-yl)-1l3-ethyl)-3-fluorobenzamide], for which the concentration for a half-maximal effect (EC50) fell in the range of 0.2 to 1 µM.

In the case of `O=C(Nc1c[nH]c2cc(F)c(F)cc12)c1cnc(N2CC3(C2)CC(F)(F)C3)c(Cl)c1` [Compound 101, 5-chloro-N-(5,6-difluoro-1H-indol-3-yl)-6-(6,6-difluoro-2-azaspiro[3.3]heptan-2-yl)nicotinamide], the EC50 fell in the range of 0.2 to 1 µM.

For the compound `CC(C)n1cc(-c2ccc3[nH]cc(NC(=O)c4cnc(N5CCC(F)(F)CC5)c(Cl)c4)c3c2)cn1` [Compound 102, 5-chloro-6-(4,4-difluoropiperidin-1-yl)-N-(5-(1-isopropyl-1H-pyrazol-4-yl)-1H-indol-3-yl)nicotinamide], the 50% effective concentration (EC50) lay within 0.2 to 1 µM.

As for `COCCCNc1ncc(C(=O)Nc2c[nH]c3cc(F)c(F)cc23)cc1C` [Compound 103, N-(5,6-difluoro-1H-indol-3-yl)-6-((3-methoxypropyl)amino)-5-methylnicotinamide], the EC50 lay in the range of 5 to 100 µM.

For the compound `N#Cc1ccc2c(NC(=O)c3ccc(OCCCC(F)(F)F)c(F)c3)c[nH]c2c1` [Compound 104, N-(6-cyano-1H-indol-3-yl)-3-fluoro-4-(4,4,4-trifluorobutoxy)benzamide], the 50% effective concentration (EC50) lay in the range of 1 to 5 µM.

Turning to `O=C(Nc1c[nH]c2cc(F)c(F)cc12)c1cc(Cc2ccc(C(F)(F)F)cc2)c(=O)[nH]n1` [Compound 105, N-(5,6-difluoro-1H-indol-3-yl)-6-oxo-5-(4-(trifluoromethyl)benzyl)-1,6-dihydropyridazine-3-carboxamide], the concentration giving a half-maximal response (EC50) was in the range of 0.2 to 1 µM.

Take `O=C(Nc1c[nH]c2cc(F)c(F)cc12)c1ccnc(OC(F)F)c1` [Compound 106, N-(5,6-difluoro-1H-indol-3-yl)-2-(difluoromethoxy)pyridine-4-carboxamide]: the concentration giving a half-maximal response (EC50) lay within 0.2 to 1 µM.

Regarding `N#Cc1cc(C(=O)Nc2c[nH]c3cc(F)c(F)cc23)cnc1N1CCC(F)(F)CC1` [Compound 107, 5-cyano-N-(5,6-difluoro-1H-indol-3-yl)-6-(4,4-difluoropiperidin-1-yl)nicotinamide], the 50% effective concentration (EC50) lay within 0.2 to 1 µM.

Turning to `O=C(Nc1c[nH]c2cc(F)c(F)cc12)c1ccc(C2CC(F)(F)C2)cc1` [Compound 108, N-(5,6-difluoro-1H-indol-3-yl)-4-(3,3-difluorocyclobutyl)benzamide], the EC50 was in the range of 0.2 to 1 µM.

On to `O=C(Nc1c[nH]c2cc(F)c(F)cc12)c1ccc(OC2CC(F)(F)C2)cc1` [Compound 109, N-(5,6-difluoro-1H-indol-3-yl)-4-(3,3-difluorocyclobutoxy)benzamide], for which the EC50 was in the range of 0.2 to 1 µM.

In the case of `O=C(Nc1c[nH]c2cc(F)c(F)cc12)c1ccc(CCOC(F)(F)F)cc1` [Compound 110, N-(5,6-difluoro-1H-indol-3-yl)-4-(2-(trifluoromethoxy)ethyl)benzamide], the concentration for a half-maximal effect (EC50) lay in the range of 0.04 to 0.2 µM.

For `O=C(Nc1c[nH]c2c(F)cncc12)c1ccc(OCCCC(F)(F)F)c(F)c1` [Compound 111, 3-fluoro-N-(7-fluoro-1H-pyrrolo[3,2-c]pyridin-3-yl)-4-(4,4,4-trifluorobutoxy)benzamide], the 50% effective concentration (EC50) was in the range of 1 to 5 µM.

As for `COc1cc(C(=O)Nc2c[nH]c3cc(F)c(F)cc23)ccc1C(F)(F)F` [Compound 112, N-(5,6-difluoro-1H-indol-3-yl)-3-methoxy-4-(trifluoromethyl)benzamide], the 50% effective concentration (EC50) is 0.2 to 1 µM.

For `CC(C)Oc1cc(C(=O)Nc2c[nH]c3cc(F)c(F)cc23)ccn1` [Compound 113, N-(5,6-difluoro-1H-indol-3-yl)-2-(propan-2-yloxy)pyridine-4-carboxamide], the EC50 fell in the range of 0.2 to 1 µM.

`O=C(Nc1c[nH]c2cc(F)c(F)cc12)c1ccc(OC(F)(F)F)c(Cl)c1` [Compound 114, 3-chloro-N-(5,6-difluoro-1H-indol-3-yl)-4-(trifluoromethoxy)benzamide]: the EC50 lay in the range of 0.2 to 1 µM.

As for `O=C(Nc1c[nH]c2cc(F)c(F)cc12)c1cc(F)c(OCC(F)(F)F)c(F)c1` [Compound 115, N-(5,6-difluoro-1H-indol-3-yl)-3,5-difluoro-4-(2,2,2-trifluoroethoxy)benzamide], the concentration giving a half-maximal response (EC50) fell in the range of 0.2 to 1 µM.

As for `O=C(Nc1c[nH]c2cc(F)c(F)cc12)c1ccc(OC(F)F)cc1` [Compound 116, N-(5,6-difluoro-1H-indol-3-yl)-4-(difluoromethoxy)benzamide], the EC50 is 0.2 to 1 µM.

`O=C(Nc1c[nH]c2cc(F)c(F)cc12)c1cccc(OC(F)(F)C(F)F)c1` [Compound 117, N-(5,6-difluoro-1H-indol-3-yl)-3-(1,1,2,2-tetrafluoroethoxy)benzamide]: the EC50 lay in the range of 0.2 to 1 µM.

Turning to `O=C(Nc1c[nH]c2cc(F)c(F)cc12)c1ccc(Oc2cccnc2)cc1` [Compound 118, N-(5,6-difluoro-1H-indol-3-yl)-4-(pyridin-3-yloxy)benzamide], the concentration for a half-maximal effect (EC50) is 0.2 to 1 µM.

Take `Cc1cc(OC(F)(F)F)cc(C(=O)Nc2c[nH]c3cc(F)c(F)cc23)c1` [Compound 119, N-(5,6-difluoro-1H-indol-3-yl)-3-methyl-5-(trifluoromethoxy)benzamide]: the EC50 lay in the range of 0.2 to 1 µM.

Consider `CC(C)Oc1ccc(C(=O)Nc2c[nH]c3cc(F)c(F)cc23)cc1C#N` [Compound 120, 3-cyano-N-(5,6-difluoro-1H-indol-3-yl)-4-(propan-2-yloxy)benzamide], for which the concentration for a half-maximal effect (EC50) is 0.2 to 1 µM.

`O=C(Nc1c[nH]c2cc(F)c(F)cc12)c1cccc(OC(F)F)c1` [Compound 121, N-(5,6-difluoro-1H-indol-3-yl)-3-(difluoromethoxy)benzamide]: the EC50 lay within 1 to 5 µM.

For the compound `O=C(Nc1c[nH]c2cc(F)c(F)cc12)c1ccc(OCC(F)(F)F)cc1Cl` [Compound 122, 2-chloro-N-(5,6-difluoro-1H-indol-3-yl)-4-(2,2,2-trifluoroethoxy)benzamide], the EC50 is 0.2 to 1 µM.

On to `O=C(NCc1ccc(C(=O)Nc2c[nH]c3cc(F)c(F)cc23)cc1)OCc1cccnc1` [Compound 123, (pyridin-3-yl)methyl N-({4-[(5,6-difluoro-1H-indol-3-yl)carbamoyl]phenyl}methyl)carbamate], for which the concentration for a half-maximal effect (EC50) lay in the range of 1 to 5 µM.

In the case of `O=C(Nc1c[nH]c2cc(F)c(F)cc12)c1cccc(OC2CCOCC2)n1` [Compound 124, N-(5,6-difluoro-1H-indol-3-yl)-6-(oxan-4-yloxy)pyridine-2-carboxamide], the EC50 lay in the range of 5 to 100 µM.

For the compound `O=C(Nc1c[nH]c2cc(F)c(F)cc12)c1cccc(OC(F)(F)F)c1` [Compound 125, N-(5,6-difluoro-1H-indol-3-yl)-3-(trifluoromethoxy)benzamide], the concentration for a half-maximal effect (EC50) was 0.2 to 1 µM.

Consider `CC(C)Oc1ccc(C(=O)Nc2c[nH]c3cc(F)c(F)cc23)cc1C(F)(F)F` [Compound 126, N-(5,6-difluoro-1H-indol-3-yl)-4-(propan-2-yloxy)-3-(trifluoromethyl)benzamide], for which the EC50 is 0.2 to 1 µM.

With `O=C(Nc1c[nH]c2cc(F)c(F)cc12)c1ccc(OC(F)F)c(OCC2CC2)c1` [Compound 127, 3-(cyclopropylmethoxy)-N-(5,6-difluoro-1H-indol-3-yl)-4-(difluoromethoxy)benzamide], the 50% effective concentration (EC50) is 0.2 to 1 µM.

For the compound `CC(C)Oc1ccc(C(=O)Nc2c[nH]c3cc(F)c(F)cc23)cc1` [Compound 128, N-(5,6-difluoro-1H-indol-3-yl)-4-isopropoxybenzamide], the EC50 lay in the range of 0.2 to 1 µM.

With `O=C(Nc1c[nH]c2cc(F)c(F)cc12)c1ccc(OCCN2CCCCC2)cc1` [Compound 129, N-(5,6-difluoro-1H-indol-3-yl)-4-[2-(piperidin-1-yl)ethoxy]benzamide], the EC50 is 1 to 5 µM.

On to `O=C(Nc1c[nH]c2cc(F)c(F)cc12)c1ccc(OCC2CC2)cc1` [Compound 130, 4-(cyclopropylmethoxy)-N-(5,6-difluoro-1H-indol-3-yl)benzamide], for which the 50% effective concentration (EC50) was in the range of 0.2 to 1 µM.

Turning to `O=C(Nc1c[nH]c2cc(F)c(F)cc12)c1cccc(OCc2ccccc2)c1` [Compound 131, 3-(benzyloxy)-N-(5,6-difluoro-1H-indol-3-yl)benzamide], the EC50 fell in the range of 1 to 5 µM.

Turning to `CCCCOc1ccc(C(=O)Nc2c[nH]c3cc(F)c(F)cc23)cc1` [Compound 132, 4-butoxy-N-(5,6-difluoro-1H-indol-3-yl)benzamide], the EC50 is 0.2 to 1 µM.

For `O=C(Nc1c[nH]c2cc(F)c(F)cc12)c1ccc(Oc2ccc(C(F)(F)F)cn2)cc1` [Compound 133, N-(5,6-difluoro-1H-indol-3-yl)-4-{[5-(trifluoromethyl)pyridin-2-yl]oxy}benzamide], the half-maximal effective concentration (EC50) lay within 0.2 to 1 µM.
